Data on 3 compounds can be found in publication PMC5648829 (Scientific Reports, 2017).

Where a SMILES comes first, the peptide text is derived from it.

Series [1] concerns asthma bronchial allergen challenge. Set-up: method as in PMID 25018015. Conditions: asthma bronchial allergen challenge trial; cited from earlier work.
Series [2] relates to human neutrophils. Briefly: Human neutrophil chemotaxis assay. Type of series: cell-based. Particulars: graded concentrations up to mM range, 90 min at 37 °C. As for the experimental part:
Purified human neutrophils were labeled with calcein-AM (Fluka, Buchs, Switzerland). Test compounds (PGP, Ac-PGP, RTR, and Ac-RTR) or IL-8 (Sigma) as positive chemoattractant control were diluted in RPMI containing BSA (0.1%) and added at graded concentrations into the wells of a 96-well ChemoTX plate (3.2 mm diameter, 5 µm pore size; NeuroProbe, Gaithersburg, MD). Labeled cells (50,000 per well) were added onto the filters above the wells that received the test compounds. Plates were incubated for 90 min at 37 °C. The filters were removed and fluorescence in the receiving wells was measured using a SpectraMAX Gemini EM instrument (Molecular Devices, Sunnyvale, CA; λex = 485 nm; λem = 538 nm). The chemotactic index was measured as the ratio of fluorescence in the test wells and in control (buffer only) wells.

In another series the target is T1, LTA4H (Homo sapiens, UniProt P09960).
T1 sequence (P09960 1-611): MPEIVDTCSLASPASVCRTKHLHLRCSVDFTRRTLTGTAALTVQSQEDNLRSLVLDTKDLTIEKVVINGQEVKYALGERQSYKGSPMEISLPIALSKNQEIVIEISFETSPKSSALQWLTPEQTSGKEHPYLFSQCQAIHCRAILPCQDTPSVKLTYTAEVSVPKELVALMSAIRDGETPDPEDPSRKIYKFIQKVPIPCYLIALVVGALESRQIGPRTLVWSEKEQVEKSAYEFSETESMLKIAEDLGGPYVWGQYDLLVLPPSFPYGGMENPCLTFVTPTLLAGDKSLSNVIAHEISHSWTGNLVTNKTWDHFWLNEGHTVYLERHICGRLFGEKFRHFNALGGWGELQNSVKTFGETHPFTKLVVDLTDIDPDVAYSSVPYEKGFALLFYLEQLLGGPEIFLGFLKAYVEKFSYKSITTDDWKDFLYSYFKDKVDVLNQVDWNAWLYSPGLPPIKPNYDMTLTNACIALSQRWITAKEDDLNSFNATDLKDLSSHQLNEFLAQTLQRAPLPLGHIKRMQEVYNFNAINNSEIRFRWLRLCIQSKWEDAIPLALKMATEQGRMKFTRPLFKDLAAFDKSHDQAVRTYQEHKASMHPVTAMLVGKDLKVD
As to the kind of experiment: PGP degradation assay in human blood. Type of series: cell-based. Set-up: Fresh blood was collected in heparinized tubes by venipuncture from volunteers; from tissue; host or cells: fresh human whole blood from volunteers, diluted 1:3 in RPMI. Particulars: untreated and LPS stimulated blood, 24 h at 37 °C. As for the experimental part:
Fresh blood was collected in heparinized tubes by venipuncture from volunteers from the Novartis Blood Donor Center, Basel. The blood was diluted 1:3 in Roswell Park Memorial Institute (RPMI) containing HEPES (0.025 M). […] PGP and LPS were added at final concentrations of 2 µg/ml each and incubated up to 24 h at 37 °C, 5% CO2 and 90% humidity before samples were collected for LC-MS/MS analysis.

Series [3] has as its system neutrophil influx into lungs. As to the kind of experiment: Stimulation of lungs with PGP and Ac-PGP (intra-tracheal). Type of series: in vivo, mouse. Conditions: PGP up to 500 μg intra-tracheal, wt or LTA4H KO mice, 24 h. The procedure:
PGP or Ac-PGP in increasing doses up to 500 ug per mouse were applied by intra-tracheal administration in 50 µl PBS to female LTA4H KO or wild type mice. After 24 h, the mice were euthanized and BALF was collected by cannulating the trachea with a catheter and lavaging the lungs 3 times with 0.4 ml cold PBS. The lavage fluid was then centrifuged and the cells analyzed by flow cytometry. Cell supernatants were used for analysis of MPO and cytokine content in BALF.

The subject of series [4] is human neutrophils. Set-up: method as in earlier work. Conditions: ref 27 Haddox et al.; read-out: EC50 chemotaxis of human neutrophils; cited from earlier work.
The test system of series [5] is human neutrophils. As to the kind of experiment: Human neutrophil calcium flux assay. In kind it is cell-based. Particulars: up to mM concentrations. The procedure: Purified human neutrophils were incubated in Calcium 5 loading buffer (Molecular Devices) containing Probenecid (2.5 mM, SIGMA) at 37 °C, 5% CO2 and 90% humidity for 1 h. 20 µl of the cell suspension were then transferred to a black 384-well plate with clear bottom and centrifuged at 100 g for 4 min. Test compounds PGP, Ac-PGP and fMLP (SIGMA) were prepared at graded concentrations in HBSS containing HEPES (20 mM). Fluorescence was measured in FLIPR Tetra reader (Molecular Devices) every second before and after the addition of 5 µl of compounds dilutions. The calculated F index is the difference between the maximum signal and the average baseline signal, divided by the average baseline signal.

Series [6] is described as follows: PGP degradation assay in BALF ex-vivo (LC-MS/MS). Type of series: in vitro ADME, mouse. The procedure:
200 µl of BALF were spiked with PGP and Ac-PGP at the final concentration of 10 nM. […] After incubation, samples were filtered (Amicon Ultra-0.5, Membrane Ultracel-30, PMNL 30 kD) by centrifugation (3 min at 10,000 × g). Filtered samples were transferred to vials for liquid chromatography tandem mass spectrometry (LC-MS/MS) analysis. The LC system consisted of an Acquity UPLC I-Class interfaced with a Xevo-TQS triple quadruple MS (Waters). […] PGP was monitored with MRM m/z transitions of 270.1 > 173.1 (quantifier) and 270.1 > 70.1 and 270.1 > 116.1 (qualifiers). Ac-PGP was monitored with m/z transitions of 312.2 > 112.1 (quantifier) and 312.2 > 116.1 and 312.2 > 140.1 (qualifiers).

Series [7] deals with neutrophil influx into dorsal air-pouch. As to the kind of experiment: Air-pouch model of acute inflammation. In kind it is in vivo, mouse. Particulars: for PGP concentration in air-pouch exudate: PGP 500 μg/mouse. As for the experimental part:
Air-pouches were formed by subcutaneous injection of 5 ml air through a 0.22 μm filter on the backs of female LTA4H KO or wt mice. The patency of the cavity was maintained by a further 3 ml injection on day 3. Six days after the initial injection of air, LPS at 10 µg/animal and PGP, Ac-PGP, at different concentrations up to 500 µg/animal were injected into the air pouches. […] An incision was made on the top of the pouch and the injected lavage fluid pipetted out into an eppendorf tube. An aliquot of air pouch lavage fluid was used to determine total cell counts on an Advia 120® Haematology Analyser. To determine differential cell counts, cytospins were prepared for all pouch fluid samples. The cytospins were air dried prior to staining with DiffQwik differential staining solutions. Differential cell counts were performed manually (x200 magnification) to determine the percentage of neutrophil and non-neutrophil cell populations in each sample.

In series [8] the test system is human neutrophils. Briefly: ROS generation in human neutrophils. Type of series: cell-based. Particulars: up to mM concentrations. As for the experimental part: Purified human neutrophils were plated in RPMI + FCS (5%) in 96-well cell culture plates (100,000 cells/well). Dihydrorhodamine 123 (SIGMA) was added at a final concentration of 3 µM together with PGP, Ac-PGP and fMLP (SIGMA) at graded concentrations and incubated for 30 min at 37 °C, 5% CO2 and 90% humidity. […] Amount of generated ROS is given as GMFI (sample)/GMFI (unstimulated control).

Series [9] relates to human neutrophils. As to the kind of experiment: Human neutrophil shape change assay. Conditions: up to 100 μM. In kind it is cell-based. The procedure: Neutrophils were purified by Ficoll density gradient centrifugation from human blood and incubated with graded concentrations of PGP, Ac-PGP or the known neutrophil chemoattractant GROα in assay buffer containing BSA (0.1%) in PBS for 10 min at 37 °C, 5% CO2 and 90% humidity. Cells were then fixed and shape change analyzed by flow cytometry.

The test system of the next series is sputum neutrophils. Set-up: method as in PMID 27806191. Conditions: cystic fibrosis patients; cited from earlier work.

Take `CC(=O)NC1C[C@H]2CC[C@@H](C1)N2Cc1ccc(Oc2nc3ncccc3s2)cc1` (some centres unmarked) [JNJ-40929837]: the clinical efficacy result in series [1] is listed as “did not show efficacy”.

For the compound `O=C(NCC(=O)N1CCC[C@H]1C(=O)O)[C@@H]1CCCN1` [PGP, H-Pro-Gly-Pro] (H-Pro-Gly-Pro-OH), in the series with human neutrophils [2], the neutrophil chemotaxis entry was “no significant increase in chemotaxis”. For the same compound, the “Degradation of PGP in human blood” value on LTA4H is “complete disappearance”. Further, the “influx of neutrophils by flow cytometry of BALF cells” value in series [3] is “neither able to detect influx of neutrophils”. Further, the “myeloperoxidase (MPO) in BALF” value in [3] (versus PBS control) is on record as “nor elevation of myeloperoxidase (MPO) beyond the PBS control”. The EC50 in the series on human neutrophils [4] is 15 mM. The “induction of Ca2+ flux” value in the series on human neutrophils [5] is listed as “neither PGP nor Ac-PGP induced”. For the same compound, the “PGP level after spiking into BALF” value in series [6] (BALF from LPS challenged wt mice, PGP 10 nM, 4 h at 37 °C) was “undetectable levels”. Further, the PGP still present result in [6] (exudate (BALF) of LTA4H KO mice, after 24 h) is given as “over 80%”. For the same compound, in [7] (500 μg PGP, LTA4H KO mice, 24 h), the “cell influx in air-pouch” value is “failed to detect significant cell influx”. Further, the “PGP concentration in air-pouch exudate” value was “approximately 1 µg/ml” in [7] (LTA4H KO mice, 1 h after injection); “no PGP was detectable” in series [7] (LTA4H KO mice, 4 h and 24 h after injection). The “cell numbers (neutrophil influx) in air-pouch” value in [7] (PGP up to 500 μg per air-pouch, Balb/c mice, 4 h) is listed as “did not show elevated cell numbers compared to saline control”. For the same compound, the “neutrophil influx in air-pouch” value in series [7] (mice pre-treated with 30 mg/kg DG-051 before PGP injection, 4 h) is listed as “unable to detect neutrophil influx”. The ROS production entry with human neutrophils [8] is “neither PGP nor Ac-PGP induced”. Moreover, the “neutrophil shape change response” value with human neutrophils [9] is on record as “no response”.

As to `O=C(O)c1ccc(CN2C[C@@H]3C[C@H]2CN3Cc2ccc(Oc3ccc(-c4ncco4)cc3)cc2)cc1` [Acebilustat], in the series on sputum neutrophils, the “reduction of sputum neutrophils” value is recorded as 65%.
